Series [1] is described as follows: Acute toxicity through oral administration. The following applies: mouse, in vivo, male ICR-strain mice (5 weeks old), read-out: LD₅₀. As for the experimental part: Acute toxicity tests through oral administration were carried out using male ICR-strain mice (5 weeks old).
The LD₅₀ values of the compound (1) of the present invention was 2000 mg/kg or more and thus higher saftety as compared with the effective amount was ascertained.

For series [2], the system named is HCl-ethanol induced ulcer. Briefly: Antiulcer activity (HCl-ethanol ulcer), oral administration. The format is in vivo. The following applies: rats, inhibition of ulcer coefficient vs control; for Inhibitation Rate (%): dose 5 mg/kg orally one hour before HCl-ethanol. The protocol:
Antiulcer activity (HCl-ethanol ulcer) 1.5 ml of 60% ethanol aqueous solution containing 150 mM of hydrochloric acid was orally administered to rats. One hour thereafter the rats were sacrificed and the length (mm) of HCl-ethanol induced ulcer generated at the mucosa of the stomach was measured. The sum of the ulcer length per animal is defined as ulcer coefficient. Specimens each was orally administered one hour before the HCl-ethanol administration. Inhibition rate was calculated by dividing the difference in ulcer coefficient between the control group and the specimen-administered group by the ulcer coefficient of the control group.

Take `S=C(SSC(=S)N1CCOCC1)N1CCOCC1` [Compound Number (1)]: the LD50 in series [1] was at least 2000 mg/kg. Also, in series [2], the “Inhibitation Rate (%)” value came out at 93.7%.
On to `CC1CN(C(=S)SSC(=S)N2CC(C)OC(C)C2)CC(C)O1` (centres unmarked) [Compound Number (2)], for which, in series [2], the “Inhibitation Rate (%)” value is on record as 81.7%.
For the compound `OCCN1CCN(C(=S)SSC(=S)N2CCN(CCO)CC2)CC1` [Compound Number (3)], in series [2], the “Inhibitation Rate (%)” value stood at 24.3%.
As to `S=C(SSC(=S)N1CCCCC1)N1CCCCC1` [Compound Number (4)], the “Inhibitation Rate (%)” value in series [2] came to 64.1%.
Turning to `OCCC1CCN(C(=S)SSC(=S)N2CCC(CCO)CC2)CC1` [Compound Number (5), bis[[4-(2-hydroxyethyl)piperidiono]thiocarbonyl]disulfide], the “Inhibitation Rate (%)” value in series [2] was 37.4%.
On to `CC(=O)c1ccc2c(c1)C(=O)C1(CC1)O2` [Spizofurone, reference compound], for which the “Inhibiton Rate (%)” value in series [2] (dose 100 mg/kg orally one hour before HCl-ethanol) is 86.6%.
As to Teprenone [reference compound], the “Inhibiton Rate (%)” value in series [2] (dose 25 mg/kg orally one hour before HCl-ethanol) was 48.9%.

Source of the values: EP0411593A2, “Use of bis (aminothiocarbonyl) disulfide for treating ulcer” (KURARAY CO., LTD., priority 1989, dated 1991).
